According to patent US20200016136A1 (VIIV HEALTHCARE UK (NO. 5) LIMITED, priority 2017, published 2020):

Tested on: NL-RLuc virus (recombinant NL4-3 HIV with Renilla Luciferase gene)
Assay: Inhibition of HIV replication (NL-RLuc virus in MT-2 cells, luciferase readout)
Format: cell-based, Human immunodeficiency virus (HIV)
Conditions: MT2, 120 h
Text: Inhibition of HIV Replication:
A recombinant NL-RLuc proviral clone was constructed in which a section of the nef gene form NL4-3 was replaced with the Renilla Luciferase gene. This virus is fully infectious and can undergo multiple cycles of replication in cell culture. In addition, the luciferous reporter provides a simple and easy method for quantitating the extent of virus growth and consequently, the antiviral activity of test compounds. The plasmid pNLRLuc contains the proviral NL-Rluc DNA cloned into pUC18 at the PvuII site. The NL-RLuc virus was prepared by transfection of 293T cells with the plasmid pNLRLuc. Transfections were performed using the LipofectAMINE PLUS kit form Invitrogen (Carlsbad, Calif.) according to the manufacturer and the virus generated was titered in MT-2 cells. For susceptibility analyses, the titrated virus was used to infect MT-2 cells in the presence of compound, and after 5 days of incubation, cells were processed and quantitated for virus growth by the amount of expressed luciferase. Assay media was RPMI 1640 supplemented with 10% heat inactivated fetal bovine serum (FBS), 100 units/ml penicillin G/100 units/ml streptomycin, 10 mM HEPES buffer pH 7.55 and 2 mM L-glutamine. The results form at least 2 experiments were used to calculate the EC50 values. Luciferase was quantitated using the Dual Luciferase kit form Promega (Madison, Wis.). Susceptibility of viruses to compounds was determined by incubation in the presence of serial dilutions of the compound. The 50% effective concentration (EC50) was calculated by using the exponential form of the median effect equation where (Fa)=1/[1+(ED50/drug conc.)^m](Johnson V A, Byington R T. Infectivity Assay. In Techniques in HIV Research. ed. Aldovini A, Walker B D. 71-76. New York: Stockton Press. 1990).

`Cc1nc(C)c([C@H](OC(C)(C)C)C(=O)O)c(N2CCC(C)(C)CC2)c1-c1ccc2c(c1)CCN(c1cc(N3CCOCC3)cc(F)n1)C2` [Example 87, (S)-2-(tert-Butoxy)-2-(4-(4,4-dimethylpiperidin-1-yl)-5-(2-(6-fluoro-4-morpholinopyridin-2-yl)-1,2,3,4-tetrahydroisoquinolin-6-yl)-2,6-dimethylpyridin-3-yl)acetic Acid] gave an EC50 of 5 nM.
In the case of `Cc1nc(C)c([C@H](OC(C)(C)C)C(=O)O)c(N2CCC(C)(C)CC2)c1-c1ccc2c(c1)CCN(c1nccc(N3CCN4CCC3CC4)n1)C2` [Example 44, (2S)-2-(tert-Butoxy)-2-{5-[2-(4-{1,4-diazabicyclo[3.2.2]nonan-4-yl}pyrimidin-2-yl)-1,2,3,4-tetrahydroisoquinolin-6-yl]-4-(4,4-dimethylpiperidin-1-yl)-2,6-dimethylpyridin-3-yl}acetic Acid], the EC50 is reported as 27 nM.
With `Cc1nc(C)c([C@H](OC(C)(C)C)C(=O)O)c(N2CCC(C)(C)CC2)c1-c1ccc2c(c1)CCN(c1nccc(N3CCC(C(C)(C)O)CC3)n1)C2` [Example 70, (S)-2-(tert-Butoxy)-2-(4-(4,4-dimethylpiperidin-1-yl)-5-(2-(4-(4-(2-hydroxypropan-2-yl)piperidin-1-yl)pyrimidin-2-yl)-1,2,3,4-tetrahydroisoquinolin-6-yl)-2,6-dimethylpyridin-3-yl)acetic Acid] the EC50 was 5 nM.
For `Cc1nc(C)c([C@H](OC(C)(C)C)C(=O)O)c(N2CCC(C)(C)CC2)c1-c1ccc2c(c1)CCN(c1nccc(-c3ccccn3)n1)C2` [Example 109, (S)-2-(tert-Butoxy)-2-(4-(4,4-dimethylpiperidin-1-yl)-2,6-dimethyl-5-(2-(4-(pyridin-2-yl)pyrimidin-2-yl)-1,2,3,4-tetrahydroisoquinolin-6-yl)pyridin-3-yl)acetic Acid], the EC50 was 1 nM.
`Cc1nc(N2CCOCC2)nc(N2CCc3cc(-c4c(C)nc(C)c([C@H](OC(C)(C)C)C(=O)O)c4N4CCC(C)(C)CC4)ccc3C2)n1` [Example 56, (S)-2-(tert-Butoxy)-2-(4-(4,4-dimethylpiperidin-1-yl)-2,6-dimethyl-5-(2-(4-methyl-6-morpholino-1,3,5-triazin-2-yl)-1,2,3,4-tetrahydroisoquinolin-6-yl)pyridin-3-yl)acetic Acid] showed an EC50 of 1 nM.
With `CCOc1cc(N2CCc3cc(-c4c(C)nc(C)c([C@H](OC(C)(C)C)C(=O)O)c4N4CCC(C)(C)CC4)ccc3C2)ncn1` [Example 126, (S)-2-(tert-Butoxy)-2-(4-(4,4-dimethylpiperidin-1-yl)-5-(2-(6-ethoxypyrimidin-4-yl)-1,2,3,4-tetrahydroisoquinolin-6-yl)-2,6-dimethylpyridin-3-yl)acetic Acid] the EC50 was 5 nM.
`Cc1nc(C)c([C@H](OC(C)(C)C)C(=O)O)c(N2CCC(C)(C)CC2)c1-c1ccc2c(c1)CCN(c1ccnc(N3CCN(C)CC3)n1)C2` [Example 39, (2S)-2-(tert-Butoxy)-2-[4-(4,4-dimethylpiperidin-1-yl)-2,6-dimethyl-5-{2-[2-(4-methylpiperazin-1-yl)pyrimidin-4-yl]-1,2,3,4-tetrahydroisoquinolin-6-yl}pyridin-3-yl]acetic Acid] showed an EC50 of 5 nM.
`Cc1nc(C)c([C@H](OC(C)(C)C)C(=O)O)c(N2CCC(C)(C)CC2)c1-c1ccc2c(c1)CCN(c1ccnc(N3CCCCC3)n1)C2` [Example 22, (2S)-2-(tert-Butoxy)-2-[4-(4,4-dimethylpiperidin-1-yl)-2,6-dimethyl-5-{2-[2-(piperidin-1-yl)pyrimidin-4-yl]-1,2,3,4-tetrahydroisoquinolin-6-yl}pyridin-3-yl]acetic Acid] gave an EC50 of 3 nM.
With `COc1ccncc1-c1cc(C)nc(N2CCc3cc(-c4c(C)nc(C)c([C@H](OC(C)(C)C)C(=O)O)c4N4CCC(C)(C)CC4)ccc3C2)n1` [Example 107, (S)-2-(tert-Butoxy)-2-(4-(4,4-dimethylpiperidin-1-yl)-5-(2-(4-(4-methoxypyridin-3-yl)-6-methylpyrimidin-2-yl)-1,2,3,4-tetrahydroisoquinolin-6-yl)-2,6-dimethylpyridin-3-yl)acetic Acid] the EC50 was 1 nM.
Molecule `COc1ccccc1-c1cc(N2CCc3cc(-c4c(C)nc(C)c([C@H](OC(C)(C)C)C(=O)O)c4N4CCC(C)(C)CC4)ccc3C2)ncn1` [Example 123, (S)-2-(tert-Butoxy)-2-(4-(4,4-dimethylpiperidin-1-yl)-5-(2-(6-(2-methoxyphenyl)pyrimidin-4-yl)-1,2,3,4-tetrahydroisoquinolin-6-yl)-2,6-dimethylpyridin-3-yl)acetic Acid] has an EC50 of 11 nM.
In the case of `CC1(C)CCN(c2c(-c3ccc4c(c3)CCN(c3nccc(N5CCC(C(C)(C)O)CC5)n3)C4)cnc(Cl)c2[C@H](OC(C)(C)C)C(=O)O)CC1` [Example 93, (S)-2-(tert-Butoxy)-2-(2-chloro-4-(4,4-dimethylpiperidin-1-yl)-5-(2-(4-(4-(2-hydroxypropan-2-yl)piperidin-1-yl)pyrimidin-2-yl)-1,2,3,4-tetrahydroisoquinolin-6-yl)pyridin-3-yl)acetic Acid], the EC50 is reported as 8 nM.
In the case of `Cc1cccc(Cl)c1CN1CCc2cc(-c3c(CO)ncc([C@H](OC(C)(C)C)C(=O)O)c3N3CCC(C)(C)CC3)ccc2C1` [Example 117, (S)-2-(tert-Butoxy)-2-(5-(2-(2-chloro-6-methylbenzyl)-1,2,3,4-tetrahydroisoquinolin-6-yl)-4-(4,4-dimethylpiperidin-1-yl)-6-(hydroxymethyl)pyridin-3-yl)acetic Acid], the EC50 is reported as 1 nM.
`Cc1nc(C)c([C@H](OC(C)(C)C)C(=O)O)c(N2CCC(C)(C)CC2)c1-c1ccc2c(c1)CCN(c1cccc(C(=O)O)n1)C2` [Example 142, (S)-6-(6-(5-(tert-Butoxy(carboxy)methyl)-4-(4,4-dimethylpiperidin-1-yl)-2,6-dimethylpyridin-3-yl)-3,4-dihydroisoquinolin-2(1H)-yl)picolinic Acid] was tested, and the EC50 was 381 nM.
`Cc1nc(C)c([C@H](OC(C)(C)C)C(=O)O)c(N2CCC(C)(C)CC2)c1-c1ccc2c(c1)CCN(c1cc(N3CCC(O)CC3)ncn1)C2` [Example 125, (S)-2-(tert-Butoxy)-2-(4-(4,4-dimethylpiperidin-1-yl)-5-(2-(6-(4-hydroxypiperidin-1-yl)pyrimidin-4-yl)-1,2,3,4-tetrahydroisoquinolin-6-yl)-2,6-dimethylpyridin-3-yl)acetic Acid] showed an EC50 of 23 nM.
In the case of `Cc1nc(C)c([C@H](OC(C)(C)C)C(=O)O)c(N2CCC(C)(C)CC2)c1-c1ccc2c(c1)CCN(c1nccc(N3CCCCC3)n1)C2` [Example 23, (2S)-2-(tert-Butoxy)-2-[4-(4,4-dimethylpiperidin-1-yl)-2,6-dimethyl-5-{2-[4-(piperidin-1-yl)pyrimidin-2-yl]-1,2,3,4-tetrahydroisoquinolin-6-yl}pyridin-3-yl]acetic Acid], the EC50 is reported as 3 nM.
Work on `Cc1nc(C)c([C@H](OC(C)(C)C)C(=O)O)c(N2CCC(C)(C)CC2)c1-c1ccc2c(c1)CCN(c1cc(N3CCC(CO)CC3)ncn1)C2` [Example 120, (S)-2-(tert-Butoxy)-2-(4-(4,4-dimethylpiperidin-1-yl)-5-(2-(6-(4-(hydroxymethyl)piperidin-1-yl)pyrimidin-4-yl)-1,2,3,4-tetrahydroisoquinolin-6-yl)-2,6-dimethylpyridin-3-yl)acetic Acid] yielded an EC50 of 14 nM.
`Cc1cccc(Cl)c1CN1CCc2cc(-c3c(NCc4ccn[nH]4)nc(C)c([C@H](OC(C)(C)C)C(=O)O)c3N3CCC(C)(C)CC3)ccc2C1` [Example 6, (S)-2-(6-(((1H-Pyrazol-5-yl)methyl)amino)-5-(2-(2-chloro-6-methylbenzyl)-1,2,3,4-tetrahydroisoquinolin-6-yl)-4-(4,4-dimethylpiperidin-1-yl)-2-methylpyridin-3-yl)-2-(tert-butoxy)acetic Acid] showed an EC50 of 18 nM.
In the case of `Cc1cccc(Cl)c1CN1CCc2cc(-c3c(NC4CCN(C)CC4)nc(C)c([C@H](OC(C)(C)C)C(=O)O)c3N3CCC(C)(C)CC3)ccc2C1` [Example 8, (S)-2-(tert-Butoxy)-2-(5-(2-(2-chloro-6-methylbenzyl)-1,2,3,4-tetrahydroisoquinolin-6-yl)-4-(4,4-dimethylpiperidin-1-yl)-2-methyl-6-((1-methylpiperidin-4-yl)amino)pyridin-3-yl)acetic Acid], the EC50 is reported as 2 nM.
With `Cc1nc(N2CCOCC2)cc(N2CCc3cc(-c4c(C)nc(C)c([C@H](OC(C)(C)C)C(=O)O)c4N4CCC(C)(C)CC4)ccc3C2)n1` [Example 64, (S)-2-(tert-Butoxy)-2-(4-(4,4-dimethylpiperidin-1-yl)-2,6-dimethyl-5-(2-(2-methyl-6-morpholinopyrimidin-4-yl)-1,2,3,4-tetrahydroisoquinolin-6-yl)pyridin-3-yl)acetic Acid] the EC50 was 8 nM.
For `Cc1cccc(Cl)c1CN1CCc2cc(-c3c(NCCCN(C)C)nc(C)c([C@H](OC(C)(C)C)C(=O)O)c3N3CCC(C)(C)CC3)ccc2C1` [Example 9, (S)-2-(tert-Butoxy)-2-(5-(2-(2-chloro-6-methylbenzyl)-1,2,3,4-tetrahydroisoquinolin-6-yl)-6-((3-(dimethylamino)propyl)amino)-4-(4,4-dimethylpiperidin-1-yl)-2-methylpyridin-3-yl)acetic Acid], the EC50 was 2 nM.
